According to US6987114B1, “Antiviral pyrimidinedione derivatives and process for the preparation thereof” (Samjin Pharmaceutical Co., Ltd, priority 1999, dated 2006):
Converted amounts (≈) assume the structure as drawn. Where two headings read alike, the source gives them in different places.

Tests used:
mock-infected MT-4 cells = test: Cytotoxicity based on viability of mock-infected host cells (MTT method); type: cell-based
Procedure: (§1) MT-4 cells were suspended in culture media at 2.5×10^5 cells/ml and infected with 1000 CCID50 (50% cell culture infective dose) of HIV. Immediately after virus infection, 100 μl of cell suspension was brought into each well of a flat-bottomed microtitray containing various concentrations of the test compounds. After 4 or 5 days incubation at 37° C., efficacy of the compounds was determined by the MTT method. Cytotoxicity of the compounds was assessed in parallel with their antiviral activity, based on viability of mock-infected host cells as determined by the MTT method.

HIV = test: microbe, parasite or virus in culture; type: cell-based
Procedure: Anti-HIV activity tests in vitro of the compounds according to the present invention were performed as described in J. Med. Chem, 34, 357, 1991. Inhibition by the compounds of virus-induced cytotoxic effect in MT-4 cells was measured as follows.
as §1

[1] = mock-infected MT-4 cells, MTT method, 4 or 5 days at 37° C.
[2] = Human immunodeficiency virus 1, MT4, read-out: ED50
[3] = Human immunodeficiency virus 1, MT4, HIV-infected MT-4 cells, MTT method, 4 or 5 days at 37° C., read-out: ED50 (the source's name)
[4] = HIV-infected MT-4 cells, MTT method, 4 or 5 days at 37° C.

Compound	CD50 (mock-infected MT-4 cells; [1])	melting point	EC50 (HIV; [2])	EC50 (HIV; [3])	ED50 (HIV; [4])	CD50 (mock-infected MT-4 cells)
Cc1cc(C)cc(Oc2c(C(C)C)c(=O)[nH]c(=O)n2Cc2nc3ccccc3o2)c1 [Example 148, 1-(Benzoxazol-2-ylmethyl)-5-isopropyl-6-(3,5-dimethylphenoxy)-2,4-pyrimidinedione]	9.00 µg/mL	200 to 202 °C	0.01 µg/mL (≈ 0.0247 µM)			
Cc1cc(C)cc(Oc2c(C(C)C)c(=O)[nH]c(=O)n2Cc2cc(Cl)cc(Cl)c2)c1 [Example 82, 1-(3,5-Dichlorobenzyl)-5-isopropyl-6-(3,5-dimethylphenoxy)-2,4-pyrimidinedione]	36.15 µg/mL	234 to 236 °C	0.173 µg/mL (≈ 0.399 µM)			
CCc1c(C(=O)c2cc(C)cc(C)c2)n(Cc2ccc3c(c2)C(=O)c2ccccc2C3=O)c(=O)[nH]c1=O [Example 107, 1-(Anthraquinon-2-ylmethyl)-5-ethyl-6-(3,5-dimethylbenzoyl)-2,4-pyrimidinedione]	2.38 µg/mL	143 to 146 °C		0.026 µg/mL (≈ 0.0528 µM)		
Cc1cc(C)cc(Sc2c(C(C)C)c(=O)[nH]c(=O)n2Cc2ccc3c(c2)C(=O)c2ccccc2C3=O)c1 [Example 104, 1-(Anthraquinon-2-ylmethyl)-5-isopropyl-6-(3,5-dimethyl-phenyl)thio-2,4-pyrimidinedione]	>100.00 µg/mL	120 to 122 °C		> 100 µg/mL		
Cc1cc(C)cc(C(=O)c2c(C(C)C)c(=O)[nH]c(=O)n2Cc2ccccn2)c1 [Example 114, 1-(Pyridin-2-2-ylmethyl)-5-isopropyl-6-(3,5-dimethyl-benzoyl)-2,4-pyrimidinedione]	24.60 µg/mL				0.0032 µg/mL (≈ 0.00848 µM)	
1-(2-Naphthalenemethyl)-5-isopropyl-6-(3,5-dimethyl-benzoyl)-2,4-pyrimidinedione [Example 96]	9.64 µg/mL				0.014 µg/mL	
1-(2-Naphthalenemethyl)-5-ethyl-6-(3,5-dimethylphenyl)thio-2,4-pyrimidinedione [Example 91]	1.27 µg/mL				0.004 µg/mL	
CCc1c(Oc2cc(C)cc(C)c2)n(CC2CCC2)c(=O)[nH]c1=O [Example 9, 1-(Cyclobutyl)methyl-5-ethyl-6-(3,5-dimethylphenoxy)-2,4-pyrimidinedione]	>100.00 µg/mL			0.0756 µg/mL (≈ 0.23 µM)		
CCc1c(Oc2cc(C)cc(C)c2)n(CC2CC2)c(=O)[nH]c1=O [Example 3, 1-(Cyclopropyl)methyl-5-ethyl-6-(3,5-dimethylphenoxy)-2,4-pyrimidinedione]	>100.00 µg/mL			0.011 µg/mL (≈ 0.035 µM)		
CCc1c(Oc2cc(C)cc(C)c2)n(CC2CCCCC2)c(=O)[nH]c1=O [Example 15, 1-(Cyclohexyl)methyl-5-ethyl-6-(3,5-dimethylphenoxy)-2,4-pyrimidinedione]	9.17 µg/mL		0.069 µg/mL (≈ 0.194 µM)			
Cc1cc(C)cc(Sc2c(C(C)C)c(=O)[nH]c(=O)n2CC2CCCCC2)c1 [Example 14, 1-(Cyclohexyl)methyl-5-isopropyl-6-(3,5-dimethylphenyl)thio-2,4-pyrimidinedione]	6.40 µg/mL		0.061 µg/mL (≈ 0.158 µM)			
Cc1cc(C)cc(Oc2c(C(C)C)c(=O)[nH]c(=O)n2CC2CO2)c1 (stereo not drawn) [Example 138, 1-(2,3-Epoxypropyl)-5-isopropyl-6-(3,5-dimethylphenoxy)-2,4-pyrimidinedione]	39.60 µg/mL		0.34 µg/mL (≈ 1.03 µM)			
1-(2-Naphthalenemethyl)-5-ethyl-6-(3,5-dimethylbenzoyl)-2,4-pyrimidinedione [Example 95]	16.50 µg/mL				0.013 µg/mL	
Cc1cc(C)cc(C(=O)c2c(C(C)C)c(=O)[nH]c(=O)n2CC2CO2)c1 (stereo not drawn) [Example 140, 1-(2,3-Epoxypropyl)-5-isopropyl-6-(3,5-dimethylbenzoyl)-2,4-pyrimidinedione]	41.90 µg/mL		0.094 µg/mL (≈ 0.275 µM)			
CCc1c(Sc2cc(C)cc(C)c2)n(Cc2ccccc2)c(=O)[nH]c1=O [Example 19, 1-Benzyl-5-ethyl-6-(3,5-dimethylphenyl)thio-2,4-pyrimidine-dione]	12.59 µg/mL			0.015 µg/mL (≈ 0.0409 µM)		
Cc1cc(C)cc(Oc2c(C(C)C)c(=O)[nH]c(=O)n2CC2CCC2)c1 [Example 10, 1-(Cyclobutyl)methyl-5-isopropyl-6-(3,5-dimethylphenoxy)-2,4-pyrimidinedione]	7.8 µg/mL			0.0147 µg/mL (≈ 0.0429 µM)		
Cc1cc(C)cc(Oc2c(C(C)C)c(=O)[nH]c(=O)n2Cc2ccccc2)c1 [Example 22, 1-Benzyl-5-isopropyl-6-(3,5-dimethylphenoxy)-2,4-pyrimidinedione]	25.48 µg/mL			0.015 µg/mL (≈ 0.0412 µM)		
1-(Phenacyl)-5-ethyl-6-(3,5-dimethylbenzoyl)-2,425 pyrimidinedione [Example 167]					0.0569 µg/mL	43.31 µg/mL
CCc1c(Oc2cc(C)cc(C)c2)n(Cc2ccccc2)c(=O)[nH]c1=O [Example 21, 1-Benzyl-5-ethyl-6-(3,5-dimethylphenoxy)-2,4-pyrimidine-dione]	16.58 µg/mL			0.036 µg/mL (≈ 0.103 µM)		

Compound	CD50 (mock-infected MT-4 cells; [1])	melting point	EC50 (HIV; [2])	EC50 (HIV; [3])	ED50 (HIV; [4])	CD50 (mock-infected MT-4 cells)
CCc1c(Sc2cc(C)cc(C)c2)n(CC2CCCCC2)c(=O)[nH]c1=O [Example 13, 1-(Cyclohexyl)methyl-5-ethyl-6-(3,5-dimethylphenyl)thio-2,4-pyrimidinedione]	11.10 µg/mL		0.27 µg/mL (≈ 0.725 µM)			
1-(2-Naphthalenemethyl)-5-isopropyl-6-(3,5-dimethyl-phenyl)thio-2,4-pyrimidinedione [Example 92]	8.93 µg/mL				0.013 µg/mL	
CCc1c(Sc2cc(C)cc(C)c2)n(Cc2occc2C(=O)OC)c(=O)[nH]c1=O [Example 151, 1-(3-Methoxycarbonyl-2-furanylmethyl)-5-ethyl-6-(3,55 dimethylphenyl)thio-2,4-pyrimidinedione]					0.015 µg/mL (≈ 0.0362 µM)	8.67 µg/mL
Cc1cc(C)cc(Oc2c(C(C)C)c(=O)[nH]c(=O)n2CC2CCCCC2)c1 [Example 16, 1-(Cyclohexyl)methyl-5-isopropyl-6-(3,5-dimethylphenoxy)-2,4-pyrimidinedione]	8.30 µg/mL		0.065 µg/mL (≈ 0.175 µM)			
Cc1cc(C)cc(Sc2c(C(C)C)c(=O)[nH]c(=O)n2CC2CCC2)c1 [Example 8, 1-(Cyclobutyl)methyl-5-isopropyl-6-(3,5-dimethylphenyl)thio-2,4-pyrimidinedione]	5.9 µg/mL			0.013 µg/mL (≈ 0.0363 µM)		
CCc1c(Oc2cc(C)cc(C)c2)n(CC2CO2)c(=O)[nH]c1=O (stereo not drawn) [Example 137, 1-(2,3-Epoxypropyl)-5-ethyl-6-(3,5-dimethylphenoxy)-2,4-pyrimidinedione]	40.50 µg/mL		1.25 µg/mL (≈ 3.95 µM)			
CCc1c(Sc2cc(C)cc(C)c2)n(CC2CCC2)c(=O)[nH]c1=O [Example 7, 1-(Cyclobutyl)methyl-5-ethyl-6-(3,5-dimethylphenyl)thio-2,4-pyrimidinedione]	11.73 µg/mL			0.028 µg/mL (≈ 0.0813 µM)		
1-(Benzoxazol-2-ylmethyl)-5-isopropyl-6-(3,5-dimethyl-benzoyl-2,4-pyrimidinedione [Example 150]	7.09 µg/mL				0.0031 µg/mL	
CCc1c(C(=O)c2cc(C)cc(C)c2)n(CC2CO2)c(=O)[nH]c1=O (stereo not drawn) [Example 139, 1-(2,3-Epoxypropyl)-5-ethyl-6-(3,5-dimethylbenzoyl)-2,4-pyrimidinedione]	>100.00 µg/mL		0.34 µg/mL (≈ 1.04 µM)			
Cc1cn([C@H]2C[C@H](N=[N+]=[N-])[C@@H](CO)O2)c(=O)[nH]c1=O [AZT]	0.70 µg/mL				0.0015 µg/mL (≈ 0.00561 µM)	
CCc1c(C(=O)c2cc(C)cc(C)c2)n(Cc2cccc(Br)n2)c(=O)[nH]c1=O [Example 129, 1-(2-Bromopyridib-6-ylmethyl)-5-ethyl-6-(3,5-dimethyl-benzoyl)-2,4-pyrimidinedione]					0.010 µg/mL (≈ 0.0226 µM)	7.44 µg/mL
1-(Phenacyl)-5-ethyl-6-(3,5-dimethylphenoxy)-2,415 pyrimidinedione [Example 165]					>58.11 µg/mL	58.11 µg/mL
Cc1cc(C)cc(Sc2c(C(C)C)c(=O)[nH]c(=O)n2Cc2ccccc2)c1 [Example 20, 1-Benzyl-5-isopropyl-6-(3,5-dimethylphenyl)thio-2,4-pyrimidinedione]	11.30 µg/mL			0.012 µg/mL (≈ 0.0315 µM)		
Cc1cc(C)cc(Sc2c(C(C)C)c(=O)[nH]c(=O)n2CC2CC2)c1 [Example 2, 1-(Cyclopropyl)methyl-5-isopropyl-6-(3,5-dimethylphenyl)thio-2,4-pyrimidinedione]	12.43 µg/mL			< 0.0002 µg/mL		
1-(Phenacyl)-5-isopropyl-6-(3,5-dimethylphenoxy)-2,420 pyrimidinedione [Example 166]					0.7562 µg/mL	>100.00 µg/mL
1-(2-Naphthalenemethyl)-5-ethyl-6-(3,5-dimethylphenoxy)-2,4-pyrimidinedione [Example 93]	83.22 µg/mL				0.013 µg/mL	
CCC(=O)Cn1c(C(=O)c2cc(C)cc(C)c2)c(CC)c(=O)[nH]c1=O [Example 163, 1-(2-Butanon-1-yl)-5-ethyl-6-(3,5-dimethylbenzoyl) δ 2,4-pyrimidinedione]	9.31 µg/mL				0.0034 µg/mL (≈ 0.00993 µM)	
1-(Phenacyl)-5-isopropyl-6-(3,5-dimethylbenzoyl)-2,430 pyrimidinedione [Example 168]					0.0174 µg/mL	5.48 µg/mL
